# Data as given in patent US20230041563A1, “N-(1,3,4-OXADIAZOL-2-YL)ARYLCARBOXAMIDES OR SALTS THEREOF, PREPARATION METHODS, HERBICIDAL COMPOSITIONS AND USES THEREOF” (priority 2018, published 2023).
# Experiments:
# Rice = assay: Transplanted rice safety evaluation and weed control effect evaluation in rice field; type: in vivo, rice (japonica rice/Indica rice); conditions: Table 7, dose 125 g a.i./ha, 21 days after treatment
# Procedure: (§1) Transplanted rice safety evaluation and weed control effect evaluation in rice field:
# In addition, the rice field soil that loaded into the 1/1,000,000 ha pot was leveled to keep water storage at 3-4 cm depth. The 3 leaf stage rice (japonica rice/Indica rice) was transplanted at 3 cm of transplanting depth the next day. The compound of the present invention was treated by the same way after 5 days of transplantation.
# (§2) The fertility condition of echinochloa crusgali, scirpus juncoides, Bidens tripartita, Leptochloa chinensis, Sagittaria trifolia and Monochoria vaginalis 14 days after the treatment of the compound of the invention and the fertility condition of rice 21 days after the treatment of the compound of the invention respectively with the naked eye. Evaluate the weed control effect with 0-5 activity standard level. Many compounds show excellent activity and selectivity.
# Digitaria sanguinalis = assay: Weeding effect in post-emergence stage (greenhouse pot spray); type: in vivo; conditions: for Digitaria sanguinahs (activity level): Table 3, dose 60 g a.i./ha
# Summary of the method: (§3)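 Greenhouse pot plants at the 2–3 leaf stage (2 weeks after sowing) were sprayed with compound in acetone with Tween 80 and methyl oleate EC synergist (1.5 L/ha) at 500, 250, 125, 60 or 15 g a.i./ha. Fresh-weight growth control was scored 3 weeks later, averaged over three replicates.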
# Abutilon theophrasti = assay: as above; type: in vivo; conditions: for Abutilon theophrasti (activity level): Table 3, dose 60 g a.i./ha
# Summary of the method: as §3
# Echinochloa crusgalli = assay: as above; type: in vivo
# Summary of the method: as §3
# Amaranthus retroflexus = assay: as above; type: in vivo
# Summary of the method: as §3
# Stellaria media = assay: as above; type: in vivo
# Summary of the method: as §3
# Scirpus juncoides = assay: Transplanted rice safety evaluation and weed control effect evaluation in rice field; type: in vivo; conditions: Table 7, dose 125 g a.i./ha, 14 days after treatment
# Description: as §1
# (§4) Rice field soil was loaded into a 1/1,000,000 ha pot. The seeds of echinochloa crusgali, scirpus juncoides, Bidens tripartita, Sagittaria trifolia, Monochoria vaginalis and Leptochloa chinensis were sowed and gently covered with soil, then left to stand still in greenhouse in the state of 0.5-1 cm of water storage. The tuber of Sagittaria trifolia was planted in the next day or 2 days later. It was kept at 3-4 cm of water storage thereafter. The weeds were treated by dripping the WP or SC water diluents prepared according to the common preparation method of the compounds of the present invention with pipette homogeneously to achieve specified effective amount when echinochloa crusgali, scirpus juncoides, Bidens tripartita, Monochoria vaginalis and Leptochloa chinensis reached 0.5 leaf stage and Sagittaria trifolia reached the time point of primary leaf stage.
# as §2
# Echinochloa crusgali = assay: as above; type: in vivo; conditions: Table 7, dose 125 g a.i./ha, 14 days after treatment
# Description: as §1, §4, §2
# Monochoria vaginalis = assay: as above; type: in vivo; conditions: Table 7, dose 125 g a.i./ha, 14 days after treatment
# Description: as §1, §4, §2
# [1] = system: rice and Echinochloa crusgali; assay: Herbicide selection index between rice and Echinochloa crusgali; type: in vivo; conditions: average dose causing 10% phytotoxicity to rice divided by average dose causing 90% control efficiency to Echinochloa crusgali
# Setaria viridis = assay: Weeding effect in post-emergence stage (greenhouse pot spray); type: in vivo; conditions: Table 3, dose 60 g a.i./ha
# Summary of the method: as §3
# [2] = system: Japonica rice (Huaidao No. 5); assay: Safety test of control experiments on rice; type: in vivo; conditions: Dose 250 g a.i./ha
# Description: (§5) The activity level criteria for plant damage (i.e., growth control rate) are as follows: Comparative Experiments: [table]
# [3] = system: Indica rice (Huanghuazhan); assay: Safety test of control experiments on rice; type: in vivo; conditions: Dose 250 g a.i./ha
# Description: as §5
SMILES,Rice (safety level) (Rice),"Digitaria sanguinalis (activity level) (Digitaria sanguinalis; Table 2, dose 250 g a.i./ha)","Abutilion theophrasti (activity level) (Abutilon theophrasti; Table 2, dose 250 g a.i./ha)","Echinochloa crusgah (activity level) (Echinochloa crusgalli; Table 2, dose 250 g a.i./ha)","Amaranthus retroflexus (activity level) (Amaranthus retroflexus; Table 2, dose 250 g a.i./ha)","Stellaria media (activity level) (Stellaria media; Table 2, dose 250 g a.i./ha)",Scirpus juncoides (activity level) (Scirpus juncoides),Echinochloa crusgali (activity level) (Echinochloa crusgali),Monochoria vaginalis (activity level) (Monochoria vaginalis),Selection index between rice and Echinochloa crusgali [1],"Digitaria sanguinalis (activity level) (Digitaria sanguinalis; Table 2, dose 125 g a.i./ha)",Digitaria sanguinahs (activity level) (Digitaria sanguinalis),"Abutilion theophrasti (activity level) (Abutilon theophrasti; Table 2, dose 125 g a.i./ha)",Abutilon theophrasti (activity level) (Abutilon theophrasti),Setaria viridis (activity level) (Setaria viridis),"Echinochloa crusgah (activity level) (Echinochloa crusgalli; Table 2, dose 125 g a.i./ha)","Amaranthus retroflexus (activity level) (Amaranthus retroflexus; Table 2, dose 125 g a.i./ha)","Stellaria media (activity level) (Stellaria media; Table 2, dose 125 g a.i./ha)",Japonica rice (Huaidao No. 5) (plant damage level) [2],Indica rice (Huanghuazhan) (plant damage level) [3],also measured
Cc1nnc(NC(=O)c2ccc(C(F)(F)F)c([S+]([O-])C(C)C)c2F)o1 (racemic) [Compound 1-11],0 (Level 0: growth control rate is less than 5%),5 (Level 5: growth control rate is above 85%),5 (Level 5: growth control rate is above 85%),5 (Level 5: growth control rate is above 85%),5 (Level 5: growth control rate is above 85%),5 (Level 5: growth control rate is above 85%),5 (Level 5: growth control rate is above 85%),5 (Level 5: growth control rate is above 85%),5 (Level 5: growth control rate is above 85%),–,–,–,–,–,–,–,–,–,–,–,–
CCCC[S+]([O-])c1c(C(F)(F)F)ccc(C(=O)Nc2nnc(C)o2)c1F (racemic) [Compound 1-14],0 (Level 0: growth control rate is less than 5%),–,–,–,–,–,5 (Level 5: growth control rate is above 85%),5 (Level 5: growth control rate is above 85%),5 (Level 5: growth control rate is above 85%),>5,5 (Level 5: growth control rate is above 85%),5 (Level 5: growth control rate is above 85%),5 (Level 5: growth control rate is above 85%),5 (Level 5: growth control rate is above 85%),5 (Level 5: growth control rate is above 85%),5 (Level 5: growth control rate is above 85%),5 (Level 5: growth control rate is above 85%),5 (Level 5: growth control rate is above 85%),0 (Level 0: growth control rate is less than 5%),0 (Level 0: growth control rate is less than 5%),–
COCC[S+]([O-])c1c(C(F)(F)F)ccc(C(=O)Nc2nnc(C)o2)c1F (racemic) [Compound 1-57],0 (Level 0: growth control rate is less than 5%),–,–,–,–,–,5 (Level 5: growth control rate is above 85%),5 (Level 5: growth control rate is above 85%),5 (Level 5: growth control rate is above 85%),>5,–,–,–,–,–,–,–,–,0 (Level 0: growth control rate is less than 5%),0 (Level 0: growth control rate is less than 5%),"Digitaria sanguinalis (activity level) (Digitaria sanguinalis; Table 2, dose 500 g a.i./ha): 5 (Level 5: growth control rate is above 85%); Abutilion theophrasti (activity level) (Abutilon theophrasti; Table 2, dose 500 g a.i./ha): 5 (Level 5: growth control rate is above 85%); Echinochloa crusgah (activity level) (Echinochloa crusgalli; Table 2, dose 500 g a.i./ha): 5 (Level 5: growth control rate is above 85%); Amaranthus retroflexus (activity level) (Amaranthus retroflexus; Table 2, dose 500 g a.i./ha): 5 (Level 5: growth control rate is above 85%); Stellaria media (activity level) (Stellaria media; Table 2, dose 500 g a.i./ha): 5 (Level 5: growth control rate is above 85%)"
CC[S+]([O-])c1c(C(F)(F)F)ccc(C(=O)Nc2nnc(C)o2)c1F (stereo not drawn) [Compound 1-5],0 (Level 0: growth control rate is less than 5%),–,–,–,–,–,5 (Level 5: growth control rate is above 85%),5 (Level 5: growth control rate is above 85%),5 (Level 5: growth control rate is above 85%),>5,5 (Level 5: growth control rate is above 85%),5 (Level 5: growth control rate is above 85%),5 (Level 5: growth control rate is above 85%),5 (Level 5: growth control rate is above 85%),5 (Level 5: growth control rate is above 85%),5 (Level 5: growth control rate is above 85%),5 (Level 5: growth control rate is above 85%),5 (Level 5: growth control rate is above 85%),0 (Level 0: growth control rate is less than 5%),0 (Level 0: growth control rate is less than 5%),"Digitaria sanguinalis (activity level) (Digitaria sanguinalis; Table 2, dose 60 g a.i./ha): 5 (Level 5: growth control rate is above 85%); Abutilion theophrasti (activity level) (Abutilon theophrasti; Table 2, dose 60 g a.i./ha): 5 (Level 5: growth control rate is above 85%); Echinochloa crusgah (activity level) (Echinochloa crusgalli; Table 2, dose 60 g a.i./ha): 5 (Level 5: growth control rate is above 85%); Echinochloa crusgali (activity level) (Echinochloa crusgalli; Table 3, dose 60 g a.i./ha): 5 (Level 5: growth control rate is above 85%); Amaranthus retroflexus (activity level) (Amaranthus retroflexus; Table 2, dose 60 g a.i./ha): 5 (Level 5: growth control rate is above 85%); Stellaria media (activity level) (Stellaria media; Table 2, dose 60 g a.i./ha): 5 (Level 5: growth control rate is above 85%)"
CCS(=O)(=O)c1c(C(F)(F)F)ccc(C(=O)Nc2nnc(C)o2)c1F [Compound 1-6],0 (Level 0: growth control rate is less than 5%),5 (Level 5: growth control rate is above 85%),5 (Level 5: growth control rate is above 85%),5 (Level 5: growth control rate is above 85%),5 (Level 5: growth control rate is above 85%),5 (Level 5: growth control rate is above 85%),5 (Level 5: growth control rate is above 85%),5 (Level 5: growth control rate is above 85%),5 (Level 5: growth control rate is above 85%),>5,5 (Level 5: growth control rate is above 85%),–,5 (Level 5: growth control rate is above 85%),–,–,5 (Level 5: growth control rate is above 85%),5 (Level 5: growth control rate is above 85%),5 (Level 5: growth control rate is above 85%),0 (Level 0: growth control rate is less than 5%),0 (Level 0: growth control rate is less than 5%),–
Cc1nnc(NC(=O)c2ccc(C(F)(F)F)c(SC3CC3)c2F)o1 [Compound 1-76],0 (Level 0: growth control rate is less than 5%),–,–,–,–,–,5 (Level 5: growth control rate is above 85%),5 (Level 5: growth control rate is above 85%),5 (Level 5: growth control rate is above 85%),–,–,–,–,–,–,–,–,–,–,–,–
